Data: patent US7692030B2, “Conjugates of artemisinin-related endoperoxides and hydrazone derivatives for the treatment of cancer” (University of Washington, priority 2006, dated 2010)

Columns and labels:
HL-60(TB) = format: cell-based, human; conditions: Leukemia, 10 μM, 48 h
Experimental: The human tumor cell lines of the cancer screening panel were grown in RPMI 1640 medium containing 5% fetal bovine serum and 2 mM L-glutamine. For experimental screens, cells were inoculated into 96 well microtiter plates in 100 μL at plating densities ranging from 5,000 to 40,000 cells/well depending on the doubling time of individual cell lines. After cell inoculation, the microtiter plates were incubated at 37° C., 5% carbon dioxide, 95% air and 100% relative humidity for 24 hours prior to addition of the compounds.

SNB-19 = experiment: NCI DTP human tumor cell line screen (SRB); format: cell-based; conditions: CNS Cancer, 10 μM, 48 h
Experimental: (§1) Representative compounds of the invention, prepared as described in EXAMPLES 1-6, were submitted to the Developmental Therapeutics Program of the United States National Cancer Institute (NCl) to screen for anti-cancer activity. The anti-cancer activities of the six compounds were tested against approximately 60 human tumor cell lines representing leukemia, melanoma, and cancers of the lung, colon, breast, ovary, kidney, prostate, and brain. The following screening methodology was provided by the NCl. […] For experimental screens, cells were inoculated into 96 well microtiter plates in 100 μL at plating densities ranging from 5,000 to 40,000 cells/well depending on the doubling time of individual cell lines. After cell inoculation, the microtiter plates were incubated at 37° C., 5% carbon dioxide, 95% air and 100% relative humidity for 24 hours prior to addition of the compounds. After 24 hours of incubation, two plates of each cell line were fixed in situ with trichloroacetic acid (TCA) to represent a measurement of the cell population for each cell line at the time of compound addition (Tz). The compounds were solubilized in dimethyl sulfoxide at 400-fold the desired final maximum test concentration and stored frozen prior to use. At the time of drug addition, frozen aliquots of the compounds thawed and diluted with complete medium containing 50 μg/ml gentamicin. Aliquots of 100 μl of these different compound dilutions were added to the appropriate microtiter wells already containing 100 μl of medium, resulting in the required final compound concentration of 10 μM. Following compound addition, the plates were incubated for an additional 48 h at 37° C., 5% carbon dioxide, 95% air, and 100% relative humidity. For adherent cells, the assay was terminated by the addition of cold TCA. Cells were fixed in situ by the gentle addition of 50 μl of cold 50% (w/v) TCA (final concentration, 10% TCA) and incubated for 60 minutes at 4° C. The supernatant was discarded, and the plates were washed five times with tap water and air dried. Sulforhodamine B (SRB) solution (100 μl) at 0.4% (w/v) in 1% acetic acid was added to each well, and plates were incubated for 10 minutes at room temperature. After staining, unbound dye was removed by washing five times with 1% acetic acid and the plates were air dried. Bound stain was subsequently solubilized with 10 mM trizma base, and the absorbance was read on an automated plate reader at a wavelength of 515 nm. For suspension cells, the methodology was the same except that the assay was terminated by fixing settled cells at the bottom of the wells by gently adding 50 μl of 80% TCA (final concentration, 16% TCA). Using the three absorbance measurements [time zero, (Tz), control growth, (C), and test growth in the presence of compound (Ti)], the percentage growth was calculated at each of the compound concentrations levels. Percentage growth inhibition was calculated with the following algorithms: [(Ti−Tz)/(C−Tz)]×100 for concentrations for which Ti>/=Tz [(Ti−Tz)/Tz]×100 for concentrations for which Ti<Tz The results of the NCl in vitro anticancer screening with six compounds against various human tumor cell lines are presented below in Tables 2-7. […] The growth percent mean, delta, and range for each compound are given below.

SN12C = experiment: NCI DTP human tumor cell line screen (SRB); format: cell-based; conditions: Renal Cancer, 10 μM, 48 h
Experimental: as §1

OVCAR-3 = experiment: NCI DTP human tumor cell line screen (SRB); format: cell-based; conditions: Ovarian Cancer, 10 μM, 48 h
Experimental: as §1

SK-MEL-28 = experiment: NCI DTP human tumor cell line screen (SRB); format: cell-based; conditions: Melanoma, 10 μM, 48 h
Experimental: as §1

U251 = experiment: NCI DTP human tumor cell line screen (SRB); format: cell-based; conditions: CNS Cancer, 10 μM, 48 h
Experimental: as §1

T-47D = experiment: NCI DTP human tumor cell line screen (SRB); format: cell-based; conditions: Breast Cancer, 10 μM, 48 h
Experimental: as §1

SF-295 = experiment: NCI DTP human tumor cell line screen (SRB); format: cell-based; conditions: CNS Cancer, 10 μM, 48 h
Experimental: as §1

K-562 = experiment: NCI DTP human tumor cell line screen (SRB); format: cell-based; conditions: Leukemia, 10 μM, 48 h
Experimental: as §1

OVCAR-8 = experiment: NCI DTP human tumor cell line screen (SRB); format: cell-based; conditions: Ovarian Cancer, 10 μM, 48 h
Experimental: as §1

COLO 205 = experiment: NCI DTP human tumor cell line screen (SRB); format: cell-based; conditions: Colon Cancer, 10 μM, 48 h
Experimental: as §1

SK-MEL-2 = experiment: NCI DTP human tumor cell line screen (SRB); format: cell-based; conditions: Melanoma, 10 μM, 48 h
Experimental: as §1

UACC-257 = experiment: NCI DTP human tumor cell line screen (SRB); format: cell-based; conditions: Melanoma, 10 μM, 48 h
Experimental: as §1

SR = experiment: NCI DTP human tumor cell line screen (SRB); format: cell-based; conditions: Leukemia, 10 μM, 48 h
Experimental: as §1

SNB-75 = experiment: NCI DTP human tumor cell line screen (SRB); format: cell-based; conditions: CNS Cancer, 10 μM, 48 h
Experimental: as §1

UACC-62 = experiment: NCI DTP human tumor cell line screen (SRB); format: cell-based; conditions: Melanoma, 10 μM, 48 h
Experimental: as §1

MDA-MB-231/ATCC = experiment: NCI DTP human tumor cell line screen (SRB); format: cell-based; conditions: Breast Cancer, 10 μM, 48 h
Experimental: as §1

ACHN = experiment: NCI DTP human tumor cell line screen (SRB); format: cell-based; conditions: Renal Cancer, 10 μM, 48 h
Experimental: as §1

PC-3 = experiment: NCI DTP human tumor cell line screen (SRB); format: cell-based; conditions: Prostate Cancer, 10 μM, 48 h
Experimental: as §1

HCT-116 = experiment: NCI DTP human tumor cell line screen (SRB); format: cell-based; conditions: Colon Cancer, 10 μM, 48 h
Experimental: as §1

LOX IMVI = experiment: NCI DTP human tumor cell line screen (SRB); format: cell-based; conditions: Melanoma, 10 μM, 48 h
Experimental: as §1

HS 578T = experiment: NCI DTP human tumor cell line screen (SRB); format: cell-based; conditions: Breast Cancer, 10 μM, 48 h
Experimental: as §1

CAKI-1 = experiment: NCI DTP human tumor cell line screen (SRB); format: cell-based; conditions: Renal Cancer, 10 μM, 48 h
Experimental: as §1

EKVX = experiment: NCI DTP human tumor cell line screen (SRB); format: cell-based; conditions: Non-Small Cell Lung Cancer, 10 μM, 48 h
Experimental: as §1

SF-539 = experiment: NCI DTP human tumor cell line screen (SRB); format: cell-based; conditions: CNS Cancer, 10 μM, 48 h
Experimental: as §1

OVCAR-4 = experiment: NCI DTP human tumor cell line screen (SRB); format: cell-based; conditions: Ovarian Cancer, 10 μM, 48 h
Experimental: as §1

SK-MEL-5 = experiment: NCI DTP human tumor cell line screen (SRB); format: cell-based; conditions: Melanoma, 10 μM, 48 h
Experimental: as §1

SK-OV-3 = experiment: NCI DTP human tumor cell line screen (SRB); format: cell-based; conditions: Ovarian Cancer, 10 μM, 48 h
Experimental: as §1

NCI-H226 = experiment: NCI DTP human tumor cell line screen (SRB); format: cell-based; conditions: Non-Small Cell Lung Cancer, 10 μM, 48 h
Experimental: as §1

CCRF-CEM = experiment: NCI DTP human tumor cell line screen (SRB); format: cell-based; conditions: Leukemia, 10 μM, 48 h
Experimental: as §1

RPMI-8226 = experiment: NCI DTP human tumor cell line screen (SRB); format: cell-based; conditions: Leukemia, 10 μM, 48 h
Experimental: as §1

A498 = experiment: NCI DTP human tumor cell line screen (SRB); format: cell-based; conditions: Renal Cancer, 10 μM, 48 h
Experimental: as §1

Row | Compound | Growth Percent (HL-60(TB)) [%] | Growth Percent (SNB-19) [%] | Growth Percent (SN12C) [%] | Growth Percent (OVCAR-3) [%] | Growth Percent (SK-MEL-28) [%] | Growth Percent (U251) [%] | Growth Percent (T-47D) [%] | Growth Percent (SF-295) [%] | Growth Percent (K-562) [%] | Growth Percent (OVCAR-8) [%] | Growth Percent (COLO 205) [%] | Growth Percent (SK-MEL-2) [%] | Growth Percent (UACC-257) [%] | Growth Percent (SR) [%] | Growth Percent (SNB-75) [%] | Growth Percent (UACC-62) [%] | Growth Percent (MDA-MB-231/ATCC) [%] | Growth Percent (ACHN) [%] | Growth Percent (PC-3) [%] | Growth Percent (HCT-116) [%] | also measured
1 | CC1CCC2C(C)C(OCc3ccc(C(=O)NN=Cc4ccccc4O)o3)OC3OC4(C)CCC1C32OO4 (centres unmarked) [ART-Furan-Sal, N′-(2-hydroxybenzylidene)-5-(dihydroxyartemisinin-methyl)-furan-2-carbohydrazide] | −43.79 | 25.11 | 27.18 | 30.23 | 16.46 | 12.24 | 10.28 | 12.70 | 8.79 | 17.07 | 18.60 | −27.21 | 9.72 | −29.47 | −17.31 | −5.97 | 31.58 | 7.80 | 28.01 | 13.81 | Growth Percent (LOX IMVI): 0.03%; Growth Percent (HS 578T): 40.07%; Growth Percent (CAKI-1): 17.44%; Growth Percent (EKVX): 25.37%; Growth Percent (SF-539): −11.48%; Growth Percent (OVCAR-4): 12.86%; Growth Percent (SK-MEL-5): −46.62%; Growth Percent (SK-OV-3): 14.53%; Growth Percent (NCI-H226): 13.93%; Growth Percent (CCRF-CEM): −23.63%; Growth Percent (RPMI-8226): 13.00%; Growth Percent (A498): 12.88%
2 | CC1CCC2C(C)C(OCc3ccc(C(=O)NN=Cc4ccccc4)cc3)OC3OC4(C)CCC1C32OO4 (centres unmarked) [ART-Phe-Bz, N′-(benzylidene)-4-(dihydroxyartemisinin-methyl)-phenyl carbohydrazide] | −49.40 | 51.29 | 23.38 | 11.56 | 45.74 | 36.35 | 11.51 | 14.30 | 7.86 | 26.65 | 17.72 | −3.22 | 25.96 | −24.04 | 0.39 | 24.51 | 26.78 | 16.91 | 12.32 | 5.59 | Growth Percent (LOX IMVI): 8.89%; Growth Percent (HS 578T): 34.12%; Growth Percent (CAKI-1): 5.53%; Growth Percent (EKVX): 16.45%; Growth Percent (SF-539): 25.70%; Growth Percent (OVCAR-4): 18.29%; Growth Percent (SK-MEL-5): 2.01%; Growth Percent (SK-OV-3): 53.03%; Growth Percent (NCI-H226): 29.10%; Growth Percent (CCRF-CEM): 6.71%; Growth Percent (RPMI-8226): 1.50%; Growth Percent (A498): 30.47%
3 | Cc1ncc(CO)c(C=NNC(=O)c2ccc(COC3OC4OC5(C)CCC6C(C)CCC(C3C)C46OO5)cc2)c1O (centres unmarked) [ART-Phe-Pyridoxal, N′-(5-hydroxy-3-hydroxymethyl-2-methyl-4-pyridylidene)-4-(dihydroxyartemisinin-methyl)-phenyl carbohydrazide] | −4.98 | 4.26 | 16.82 | 19.87 | −7.02 | 17.87 | −2.71 | 25.08 | 22.86 | 31.40 | −4.40 | 20.14 | 1.40 | −29.75 | 42.44 | −8.10 | 29.96 | 7.45 | 31.12 | 15.30 | Growth Percent (LOX IMVI): 4.22%; Growth Percent (HS 578T): −15.69%; Growth Percent (CAKI-1): −12.33%; Growth Percent (EKVX): 12.34%; Growth Percent (SF-539): −20.49%; Growth Percent (OVCAR-4): 21.42%; Growth Percent (SK-MEL-5): −43.83%; Growth Percent (SK-OV-3): −4.66%; Growth Percent (NCI-H226): 4.49%; Growth Percent (CCRF-CEM): 2.34%; Growth Percent (RPMI-8226): 9.56%; Growth Percent (A498): −36.78%
4 | CC1CCC2C(C)C(OCc3ccc(C(=O)NN=Cc4ccccc4O)cc3)OC3OC4(C)CCC1C32OO4 (centres unmarked) [ART-Phe-Sal, N′-(2-hydroxybenzylidene)-4-(dihydroxyartemisinin-methyl)-phenyl carbohydrazide] | −54.70 | 27.53 | 25.25 | 29.79 | 22.75 | 17.18 | 34.12 | −2.87 | 8.87 | 24.17 | 26.59 | −20.76 | 22.90 | −44.93 | −16.75 | −17.63 | 47.38 | 10.40 | 31.46 | 13.24 | Growth Percent (LOX IMVI): 1.55%; Growth Percent (HS 578T): 29.71%; Growth Percent (CAKI-1): 11.04%; Growth Percent (EKVX): 28.62%; Growth Percent (SF-539): −18.69%; Growth Percent (OVCAR-4): 17.87%; Growth Percent (SK-MEL-5): −56.71%; Growth Percent (SK-OV-3): 17.00%; Growth Percent (NCI-H226): 10.80%; Growth Percent (CCRF-CEM): −19.45%; Growth Percent (RPMI-8226): 22.87%; Growth Percent (A498): 0.33%
